# Patent US20090311234A1, “USE OF BETA-LACTAMASE” (priority 2006, published 2009)
# Experiment: Elimination of jejunal piperacillin during parenteral piperacillin/tazobactam therapy, canine model
# Format: in vivo, beagle dogs
# Conditions: i.v. 100 mg piperacillin and 12.5 mg tazobactam per kg; experiment 1; compared with ampicillin or amoxicillin
# Protocol: Beagle dogs were treated with a combination of piperacillin and tazobactam without and with simultaneous beta-lactamase therapy. The experiments were performed essentially as those described in Examples 1 and 2, except that a single dose of the piperacillin/tazobactam combination contained 100 mg of piperacillin and 12.5 mg of tazobactam per kg of body weight, and the HPLC analysis method was elaborated to be suitable for analysis of piperacillin (the limit of quantification was 10 micrograms per gram of jejunal chyme).
# Piperacillin values in experiment 1 represent jejunal piperacillin concentrations achieved after two separate administrations of piperacillin/tazobactam at a dosing interval of 6 hours without beta-lactamase treatment. Beagle dogs were treated with a piperacillin/tazobactam combination with concurrent beta-lactamase therapy in experiment 2.
# The experiment was repeated except that the single dose of beta-lactamase pellets contained about 0.3 mg of active beta-lactamase per kg of body weight, and the single dose of the piperacillin/tazobactam combination contained 65.6 mg of piperacillin and 9.4 mg of tazobactam per kg of body weight.
smiles,measurement,value
CCN1CCN(C(=O)N[C@@H](C(=O)N[C@@H]2C(=O)N3[C@@H]2SC(C)(C)[C@@H]3C(=O)O)c2ccccc2)C(=O)C1=O [piperacillin],biliary elimination of piperacillin without beta-lactamase,considerably higher than that of ampicillin or amoxicillin
